Consider 58 molecules from patent publication US7598397B2, “Sulfonamide peri-substituted bicyclics for occlusive artery disease” (deCODE genetics ehf, priority 2004, dated 2009).

For this assay, the target named is T1, prostanoid EP3 receptors (Homo sapiens, UniProt P43115).
T1 sequence (P43115 1-390): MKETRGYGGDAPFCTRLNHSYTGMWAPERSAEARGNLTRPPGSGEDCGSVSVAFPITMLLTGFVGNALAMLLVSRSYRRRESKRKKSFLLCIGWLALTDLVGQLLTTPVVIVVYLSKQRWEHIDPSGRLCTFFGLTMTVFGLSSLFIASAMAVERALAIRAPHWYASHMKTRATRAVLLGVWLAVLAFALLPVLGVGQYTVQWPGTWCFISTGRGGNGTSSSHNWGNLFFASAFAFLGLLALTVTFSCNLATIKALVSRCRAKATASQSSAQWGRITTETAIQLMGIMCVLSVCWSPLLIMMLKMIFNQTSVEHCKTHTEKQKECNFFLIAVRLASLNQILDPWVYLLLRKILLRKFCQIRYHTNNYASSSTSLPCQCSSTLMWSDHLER
In words: binding on prostanoid EP3 receptors (method of Abramovitz et al.). The settings on record: read-out: Activity (EP3 receptor binding, IC50 class). The method, then: The compounds of the invention were assayed for their binding on prostanoid EP3 receptors according to the method of Abramovitz et al. [Bioch. Biophys.
The term IC50 denotes the concentration needed to halve the response being measured. Regarding `Cn1cc(C=CC(=O)NS(=O)(=O)c2cc(Cl)c(Cl)s2)c2c(Oc3ccc(Cl)cc3Cl)cccc21` [Compound P303], the IC50 is below 1000 nM.
Next, `O=C(COc1cccc2[nH]cc(Sc3ccc4ccccc4c3)c12)NS(=O)(=O)c1cccs1` [Compound P166]: below 1000 nM; `O=C(COc1cccc2c1N(Cc1ccc(Cl)cc1Cl)C(=O)CO2)NS(=O)(=O)c1cccs1` [Compound P040]: below 1000 nM.
The result for `Cn1cc(C=CC(=O)NS(=O)(=O)c2ccc(F)c(F)c2)c2c(Oc3ccc(Cl)c(Cl)c3)cccc21` [Compound P293] reads below 1000 nM; that for `COc1cccc(CN2C(=O)CC3(C)CCCC(C=CC(=O)NS(=O)(=O)c4ccc(F)c(F)c4)=C23)c1` (stereo not shown) [Compound P308], below 1000 nM; that for `O=C(C=Cc1cccc2c1N(Cc1ccc(Cl)cc1Cl)C(=O)C2O)NS(=O)(=O)c1cc(Cl)c(Cl)s1` (stereo not shown) [Compound P130], below 1000 nM.
Next, `Cn1cc(C=CC(=O)NS(=O)(=O)c2ccc(F)c(F)c2)c2c(Oc3ccc(F)cc3Cl)cccc21` [Compound P341]: below 1000 nM; `CC(=O)CC1(O)C(=O)N(Cc2ccc(Cl)cc2Cl)c2c(C=CC(=O)NS(=O)(=O)c3cc(Cl)c(Cl)s3)cccc21` (stereo not shown) [Compound P128]: below 1000 nM.
In the case of `Cc1cn(Cc2ccc3ccccc3c2)c2c(/C=C/C(=O)NS(=O)(=O)c3cccs3)cccc12` [Compound P057], the IC50 was below 1000 nM.
As for `O=C(C=Cc1cc(F)cc2ccn(Cc3ccc(Cl)cc3Cl)c12)NS(=O)(=O)c1cccs1` [Compound P061], the concentration for half-maximal inhibition (IC50) was below 1000 nM.
Take `Cc1cn(CCC(=O)NS(=O)(=O)c2ccc(F)c(F)c2)c2c(Oc3ccc(Cl)c(Cl)c3)cc(F)cc12` [Compound P387]: the IC50 is below 1000 nM.
In the case of `Cc1cn(Cc2cn3ccccc3n2)c2c(C=CC(=O)NS(=O)(=O)c3ccc(Cl)c(Cl)c3)cc(F)cc12` [Compound P406], the IC50 is below 1000 nM.
Regarding `CC12CCCC(C=CC(=O)NS(=O)(=O)c3cc(Cl)c(Cl)s3)=C1N(Cc1cccc(Cl)c1Cl)C(=O)C2` (stereo not shown) [Compound P299], the half-maximal inhibitory concentration (IC50) was below 1000 nM.
Regarding `O=C(CNc1cccc2c1N(Cc1ccc3ccccc3c1)C(=O)CO2)NS(=O)(=O)c1cccs1` [Compound P049, Thiophen-2-sulfonic acid[2-(4-naphthalen-2-ylmethyl-3-oxo-3,4-dihydro-2H-benzo[1,4]oxazin-5-ylamino)-acetyl]-amide], the IC50 fell in the range of 1000 to 10000 nM.
Next, `CC(=O)Nc1ccc(S(=O)(=O)c2c[nH]c3cccc(OCC(=O)NS(=O)(=O)c4cc(Cl)c(Cl)s4)c23)cc1` [Compound P235]: below 1000 nM; `O=C(Cn1c(=O)ccc2cccc(OCc3ccc4ccccc4c3)c21)NS(=O)(=O)c1cccs1` [Compound P012]: above 10000 nM; `COc1ccc(S(=O)(=O)NC(=O)C=Cc2cn(C)c3cccc(Oc4ccc5ccccc5c4)c23)cc1` [Compound P366]: below 1000 nM.
As for `Cc1cn(CCC(=O)NS(=O)(=O)c2ccc(F)c(F)c2)c2c(Oc3ccc4ccccc4c3)cc(F)cc12` [Compound P379], the IC50 was below 1000 nM.
Next, `Cn1cc(C=CC(=O)NS(=O)(=O)c2cc(F)c(F)cc2F)c2c(Oc3ccc4ncccc4c3)cccc21` [Compound P377]: below 1000 nM.
For the molecule `CC12CCCC(C=CC(=O)NS(=O)(=O)c3ccc(F)c(F)c3)=C1N(Cc1ccc(F)cc1)C(=O)C2` (stereo not shown) [Compound P294], the IC50 was below 1000 nM.
In the case of `Cc1cn(Cc2cn3ccccc3n2)c2c(C=CC(=O)NS(=O)(=O)c3ccc(F)cc3F)cc(F)cc12` [Compound P413], the IC50 was below 1000 nM.
Consider `Cc1cn(Cc2cc(F)cc(F)c2)c2c(/C=C/C(=O)NS(=O)(=O)c3cc(Cl)c(Cl)s3)cccc12` [Compound P136], for which the IC50 was below 1000 nM.
Next, `Cn1cc(C=CC(=O)NS(=O)(=O)c2cc(F)c(F)cc2F)c2c(Oc3ccc(Cl)cc3)cccc21` [Compound P309]: below 1000 nM; `Cc1cn(CCC(=O)NS(=O)(=O)c2cc(Cl)c(Cl)s2)c2c(Oc3ccc(Cl)c(Cl)c3)cc(F)cc12` [Compound P388]: below 1000 nM.
The result for `Cc1cn(Cc2ccc(Cl)c(Cl)c2)c2c(/C=C/C(=O)NS(=O)(=O)c3cc(Cl)c(Cl)s3)cccc12` [Compound P118] reads below 1000 nM; that for `O=C(C=Cc1cccc2c1N(Cc1ccc3ccccc3c1)C(=O)C2)NS(=O)(=O)c1cc(F)c(F)cc1F` [Compound P416], below 1000 nM.
Turning to `Cc1cn(Cc2ccc(F)cc2)c2c(/C=C/C(=O)NS(=O)(=O)c3cc(Cl)c(Cl)s3)cccc12` [Compound P120], the IC50 was below 1000 nM.
Next, `O=C(C=Cc1cccc2c1N(Cc1ccc3ccccc3c1)C(=O)C2)NS(=O)(=O)c1cccs1` [Compound P217]: below 1000 nM.
The result for `Cc1ccc(CN2C(=O)COc3cccc(OCC(=O)NS(=O)(=O)c4cccs4)c32)cc1` [Compound P023] reads 1000 to 10000 nM; that for `O=C(C=Cc1cccc2c1C(Nc1cc(Cl)cc(Cl)c1)C(=O)N2)NS(=O)(=O)c1cc(Cl)c(Cl)s1` (stereo not shown) [Compound P286], below 1000 nM; that for `CC12CCCC(C=CC(=O)NS(=O)(=O)c3cc(Cl)c(Cl)s3)=C1N(Cc1ccc(F)cc1)C(=O)C2` (stereo not shown) [Compound P263], below 1000 nM.
Turning to `O=C(COc1cccc2[nH]cc(Sc3ccccc3Cl)c12)NS(=O)(=O)c1cc(Cl)c(Cl)s1` [Compound P213], the 50% inhibitory concentration (IC50) is below 1000 nM.
The result for `Cc1cn(Cc2ccc(F)c(F)c2)c2c(/C=C/C(=O)NS(=O)(=O)c3cccs3)cccc12` [Compound P103] reads below 1000 nM; that for `Cn1cc(C=CC(=O)NS(=O)(=O)c2cccc(Cl)c2)c2c(Oc3ccc4ccccc4c3)cccc21` [Compound P353], below 1000 nM.
As for `O=C(COc1cccc2[nH]cc(Sc3ccc(F)c(F)c3)c12)NS(=O)(=O)c1cc(Cl)c(Cl)s1` [Compound P209], the half-inhibitory concentration (IC50) is below 1000 nM.
On to `CN1C(=O)C(Nc2ccc(Cl)c(Cl)c2)c2c(C=CC(=O)NS(=O)(=O)c3cc(Cl)c(Cl)s3)cccc21` (stereo not shown) [Compound P271], for which the IC50 was below 1000 nM.
The result for `CC12CCCC(C=CC(=O)NS(=O)(=O)c3cc(F)c(F)cc3F)=C1N(Cc1ccc(Cl)cc1Cl)C(=O)C2` (stereo not shown) [Compound P275] reads below 1000 nM.
The result for `O=C(COc1cccc2[nH]cc(Sc3ccc(Cl)c(Cl)c3)c12)NS(=O)(=O)c1cc(Cl)c(Cl)s1` [Compound P178] reads below 1000 nM; that for `Cn1cc(C=CC(=O)NS(=O)(=O)c2cc(F)c(F)cc2F)c2c(Oc3ccc(F)c(Cl)c3)cccc21` [Compound P328], below 1000 nM.
The result for `O=C(C=Cc1cc(F)cc2ccn(Cc3ccc4ccccc4c3)c12)NS(=O)(=O)c1cccs1` [Compound P060] reads below 1000 nM; that for `COc1cc(CN2C(=O)COc3cccc(OCC(=O)NS(=O)(=O)c4cccs4)c32)cc(OC)c1` [Compound P041], 1000 to 10000 nM.
As for `Cc1cn(Cc2ccc(F)c(F)c2)c2c(C=CC(=O)NS(=O)(=O)c3ccc(F)c(F)c3)cc(F)cc12` [Compound P315], the IC50 is below 1000 nM.
As to `Cn1cc(C=CC(=O)NS(=O)(=O)c2cc(Cl)c(Cl)s2)c2c(Oc3ccc(Cl)c(Cl)c3)cccc21` [Compound P290], the half-inhibitory concentration (IC50) is below 1000 nM.
The result for `Cc1cn(Cc2ccc(Cl)cc2Cl)c2c(C=CC(=O)NS(=O)(=O)c3cc(Cl)c(Cl)s3)cncc12` [Compound P348] reads below 1000 nM; that for `O=C(C=Cc1cccc2c1C(Cc1ccc3ccccc3c1)C(=O)N2)NS(=O)(=O)c1cc(Cl)c(Cl)s1` (stereo not shown) [Compound P155], below 1000 nM; that for `Cc1cn(Cc2ccccc2Cl)c2c(/C=C/C(=O)NS(=O)(=O)c3cc(Cl)c(Cl)s3)cccc12` [Compound P123], below 1000 nM.
For `COc1ccc(S(=O)(=O)NC(=O)COc2cccc3[nH]cc(S(=O)(=O)c4ccc5ccccc5c4)c23)cc1` [Compound P193], the half-maximal inhibitory concentration (IC50) was below 1000 nM.
As for `Cn1cc(C=CC(=O)NS(=O)(=O)c2ccc(F)c(F)c2)c2c(Oc3cnc4ccccc4n3)cccc21` [Compound P393], the IC50 is below 1000 nM.
As for `Cn1cc(C=CC(=O)NS(=O)(=O)c2ccc(F)c(F)c2)c2c(Oc3ccc(F)c(F)c3)cccc21` [Compound P319], the IC50 is below 1000 nM.
Next, `O=C(C=Cc1cc(F)cc2c(C(=O)O)cn(Cc3ccc(Cl)cc3Cl)c12)NS(=O)(=O)c1cc(Cl)c(Cl)s1` [Compound P398]: below 1000 nM; `CN1C(=O)C(Sc2ccc3ccccc3c2)c2c(OCC(=O)NS(=O)(=O)c3cc(Cl)c(Cl)s3)cccc21` (stereo not shown) [Compound P229]: below 1000 nM; `Cc1cn(Cc2cccc(C(F)(F)F)c2)c2c(/C=C/C(=O)NS(=O)(=O)c3cc(Cl)c(Cl)s3)cccc12` [Compound P119]: below 1000 nM.
For the molecule `CC12CCCC(C=CC(=O)NS(=O)(=O)c3ccc(F)c(F)c3)=C1N(Cc1ccc(Cl)cc1Cl)C(=O)C2` (stereo not shown) [Compound P283], the IC50 is below 1000 nM.
`Cc1cn(Cc2ccc3ccccc3n2)c2c(/C=C/C(=O)NS(=O)(=O)c3cccs3)cccc12` [Compound P099]: the IC50 is below 1000 nM.
For `O=C(C=Cc1cccc2c1N(Cc1ccc3ccccc3c1)C(=O)C2=O)NS(=O)(=O)c1cc(Cl)c(Cl)s1` [Compound P115], the IC50 is below 1000 nM.
For the molecule `Cc1cn(Cc2cccc(OC(F)(F)F)c2)c2c(/C=C/C(=O)NS(=O)(=O)c3cc(Cl)c(Cl)s3)cccc12` [Compound P140], the IC50 is below 1000 nM.
On to `Cc1cn(Cc2ccc(F)cc2)c2c(C=CC(=O)NS(=O)(=O)c3cc(F)c(F)cc3F)cc(F)cc12` [Compound P312], for which the IC50 is below 1000 nM.
Next, `CC12CCCC(C=CC(=O)NS(=O)(=O)c3cc(F)cc(F)c3)=C1N(Cc1ccc(F)cc1)C(=O)C2` (stereo not shown) [Compound P295]: below 1000 nM.
